# pEC50: −log10 of the molar value.
# Molecular target: T1, human M4 muscarinic acetylcholine receptor (Homo sapiens, UniProt P08173)
# T1 construct: expressed in transfected cells; host or cells: CHO-K1
# T1 sequence (P08173 1-479): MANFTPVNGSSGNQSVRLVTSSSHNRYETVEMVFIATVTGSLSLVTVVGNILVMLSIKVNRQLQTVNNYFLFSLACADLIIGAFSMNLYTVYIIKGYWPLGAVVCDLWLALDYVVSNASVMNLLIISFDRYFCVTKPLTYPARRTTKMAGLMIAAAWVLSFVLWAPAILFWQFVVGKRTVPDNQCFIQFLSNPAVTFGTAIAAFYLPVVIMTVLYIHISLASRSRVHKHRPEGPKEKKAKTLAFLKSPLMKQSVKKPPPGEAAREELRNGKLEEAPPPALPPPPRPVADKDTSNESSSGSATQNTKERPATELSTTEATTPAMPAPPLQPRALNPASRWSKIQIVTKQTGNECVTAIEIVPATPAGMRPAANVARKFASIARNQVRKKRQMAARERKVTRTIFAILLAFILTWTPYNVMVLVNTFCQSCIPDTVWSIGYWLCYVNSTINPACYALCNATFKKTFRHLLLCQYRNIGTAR
# Assay: human FLIPR-based M4 PAM assay (Ca2+ mobilization, CHO-K1 cells with human M4 receptor and Gαqi5)
# Format: cell-based
# Conditions: acetylcholine at 20% of maximum response, read-out: M4 PAM IP
# In short: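 Calcium-mobilization (FLIPR) readout in dye-loaded CHO-K1 cells co-expressing human M4 receptor and Gαqi5. Potentiation measured against acetylcholine at a concentration giving 20% of maximal response, with an optional 70% addition; the reported value is the curve inflection point from a 4-parameter logistic fit.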
row,SMILES,pEC50
1,"COc1ncc(OC2CCN(c3nc4c(cc3C)C(=O)NC4)CC2)cn1 [Example 94, 2-(4-((2-methoxypyrimidin-5-yl)oxy)piperidin-1-yl)-3-methyl-6,7-dihydro-5H-pyrrolo[3,4-b]pyridin-5-one]",5.76
2,"Cc1cc2c(nc1N1CCC(Oc3cccc(C#N)c3)CC1)[C@@H](CO)N(C)C2=O [Example 345, (S)-3-((1-(7-(hydroxymethyl)-3,6-dimethyl-5-oxo-6,7-dihydro-5H-pyrrolo[3,4-b]pyridin-2-yl)piperidin-4-yl)oxy)benzonitrile]",7.64
3,"Cc1nc2cc(OC3CCN(c4nc5c(cc4C)C(=O)NC5)CC3)ccc2[nH]1 [Example 149, 3-methyl-2-(4-((2-methyl-1H-benzo[d]imidazol-5-yl)oxy)piperidin-1-yl)-6,7-dihydro-5H-pyrrolo[3,4-b]pyridin-5-one]",6.00
4,"Cc1cc2c(nc1N1CC[C@@H](Oc3cnc4c(c3)COC4)[C@@H](F)C1)CNC2=O [Example 65, 2-((3S,4R)-4-((5,7-dihydrofuro[3,4-b]pyridin-3-yl)oxy)-3-fluoropiperidin-1-yl)-3-methyl-6,7-dihydro-5H-pyrrolo[3,4-b]pyridin-5-one]",7.12
5,"CCc1cc2c(nc1N1CCC(Oc3ccc4c(c3)COCC4)CC1)CNC2=O [Example 200, 3-ethyl-2-(4-(isochroman-7-yloxy)piperidin-1-yl)-6,7-dihydro-5H-pyrrolo[3,4-b]pyridin-5-one]",7.02
6,"COc1ccc(OC2CCN(c3nc4c(cc3C#N)C(=O)NC4)CC2)cn1 [Example 223, 2-(4-((6-methoxypyridin-3-yl)oxy)piperidin-1-yl)-5-oxo-6,7-dihydro-5H-pyrrolo[3,4-b]pyridine-3-carbonitrile]",6.46
7,"Cc1cc2c(nc1N1CCC(Oc3ccccc3)CC1)CN(C(C)C)C2=O [Example 247, 6-isopropyl-3-methyl-2-(4-phenoxypiperidin-1-yl)-6,7-dihydro-5H-pyrrolo[3,4-b]pyridin-5-one]",6.86
8,"Cc1cc2c(nc1N1CCC(Oc3ccc4c(c3)C(C)(C)CCO4)CC1)CNC2=O [Example 125, 2-(4-((4,4-dimethylchroman-6-yl)oxy)piperidin-1-yl)-3-methyl-6,7-dihydro-5H-pyrrolo[3,4-b]pyridin-5-one]",6.21
9,"Cc1cc2c(nc1N1CCC(OCc3ccccc3)CC1)CNC2=O [Example 63, 2-(4-(benzyloxy)piperidin-1-yl)-3-methyl-6,7-dihydro-5H-pyrrolo[3,4-b]pyridin-5-one]",6.84
10,"Cc1cc2c(nc1N1CCC(Oc3ccc4c(c3)COC4)CC1)CN(CCO)C2=O [Example 263, 2-(4-((1,3-dihydro-2-benzofuran-5-yl)oxy)piperidin-1-yl)-6-(2-hydroxyethyl)-3-methyl-6,7-dihydro-5H-pyrrolo[3,4-b]pyridin-5-one]",7.24
11,"Cc1cc2c(nc1N1CCC(Oc3ccccc3)CC1)[C@H](CO)N(C)C2=O [Example 275, (R)-7-(hydroxymethyl)-3,6-dimethyl-2-(4-phenoxypiperidin-1-yl)-6,7-dihydro-5H-pyrrolo[3,4-b]pyridin-5-one]",5.40
12,"Cc1cncc(OC2CCN(c3nc4c(cc3C)C(=O)N(C)[C@H]4CO)CC2)c1 [Example 344, (R)-7-(hydroxymethyl)-3,6-dimethyl-2-(4-((5-methylpyridin-3-yl)oxy)piperidin-1-yl)-6,7-dihydro-5H-pyrrolo[3,4-b]pyridin-5-one]",5.91
13,"Cc1cc2c(nc1N1CCC(Oc3ccn4ccnc4c3)CC1)CNC2=O [Example 140, 2-(4-(imidazo[1,2-a]pyridin-7-yloxy)piperidin-1-yl)-3-methyl-6,7-dihydro-5H-pyrrolo[3,4-b]pyridin-5-one]",5.33
14,"Cc1c(N2CCC(Oc3ccccc3)CC2)nc2c(c1C)C(=O)N(CCO)C2 [Example 265, 6-(2-hydroxyethyl)-3,4-dimethyl-2-(4-phenoxypiperidin-1-yl)-6,7-dihydro-5H-pyrrolo[3,4-b]pyridin-5-one]",7.34
15,"Cc1cc2c(nc1N1CCC(OC(F)F)CC1)CNC2=O [Example 4A, 2-(4-(difluoromethoxy)piperidin-1-yl)-3-methyl-6,7-dihydro-5H-pyrrolo[3,4-b]pyridin-5-one]",5.56
16,"Cc1cc2c(nc1N1CCC(Oc3ccc4[nH]ccc4c3)CC1)CNC2=O [Example 26, 2-(4-((1H-indol-5-yl)oxy)piperidin-1-yl)-3-methyl-6,7-dihydro-5H-pyrrolo[3,4-b]pyridin-5-one]",7.55
17,"Cc1cc2c(nc1N1CCC(Oc3ccccc3)C(F)(F)C1)CNC2=O (single isomer, unassigned) [Example 158A, cis-2-(3,3-Difluoro-4-phenoxypiperidin-1-yl)-3-methyl-6,7-dihydro-5H-pyrrolo[3,4-b]pyridin-5-one]",6.34
18,"Cc1cc2c(nc1N1CCC(Oc3cnc4c(c3)COC4)CC1)CNC2=O [Example 48, 2-(4-((5,7-dihydrofuro[3,4-b]pyridin-3-yl)oxy)piperidin-1-yl)-3-methyl-6,7-dihydro-5H-pyrrolo[3,4-b]pyridin-5-one]",7.21
19,"Cc1cc2c(nc1N1CCC(Oc3cnn(C)c3)CC1)[C@@H](CO)N(C)C2=O [Example 357, (S)-7-(hydroxymethyl)-3,6-dimethyl-2-(4-((1-methyl-1H-pyrazol-4-yl)oxy)piperidin-1-yl)-6,7-dihydro-5H-pyrrolo[3,4-b]pyridin-5-one]",7.06
20,"Cc1cc2c(nc1N1CCC(Oc3ccc(C#N)cc3)CC1)CNC2=O [Example 84, 4-((1-(3-methyl-5-oxo-6,7-dihydro-5H-pyrrolo[3,4-b]pyridin-2-yl)piperidin-4-yl)oxy)benzonitrile]",6.64
21,"Cc1cc2c(nc1N1CCC(Oc3cccc(C#N)c3)CC1)C(C)(C)N(C)C2=O [Example 15, 3-((1-(3,6,7,7-tetramethyl-5-oxo-6,7-dihydro-5H-pyrrolo[3,4-b]pyridin-2-yl)piperidin-4-yl)oxy)benzonitrile]",5.70
22,"Cc1cc2c(nc1N1CCC(Oc3ccccn3)CC1)CNC2=O [Example 131, 3-methyl-2-(4-(pyridin-2-yloxy)piperidin-1-yl)-6,7-dihydro-5H-pyrrolo[3,4-b]pyridin-5-one]",5.82

# Other lines, results leading:
row,pEC50,SMILES
1,7.17,"Cc1c(N2CC[C@@H](Oc3ccc4c(cnn4C)c3)[C@@H](F)C2)nc2c(c1C)C(=O)N(CCO)C2 [Example 268E, 2-((3S,4R)-3-fluoro-4-((1-methyl-1H-indazol-5-yl)oxy)piperidin-1-yl)-6-(2-hydroxyethyl)-3,4-dimethyl-6,7-dihydro-5H-pyrrolo[3,4-b]pyridin-5-one]"
2,6.69,"CCc1cc2c(nc1N1CC[C@@H](Oc3cnc4c(c3)COC4)[C@@H](F)C1)CNC2=O [Example 164A, 2-((3S,4R)-4-((5,7-dihydrofuro[3,4-b]pyridin-3-yl)oxy)-3-fluoropiperidin-1-yl)-3-ethyl-6,7-dihydro-5H-pyrrolo[3,4-b]pyridin-5-one]"
3,6.51,"Cc1cc2c(nc1N1CCC(OCC3(C)CC3C#N)CC1)CNC2=O (single isomer, unassigned) [Example 193A]"
4,7.85,"Cc1cc2c(nc1N1CC[C@H](OCC3(C)CC3)C(F)(F)C1)CNC2=O [Example 171B, (S)-2-(3,3-difluoro-4-((1-methylcyclopropyl)meth-oxy)piperidin-1-yl)-3-methyl-6,7-dihydro-5H-pyrrolo[3,4-b]pyridin-5-one]"
5,7.39,"Cc1c(N2CCC(OC[C@]3(C)CC3(F)F)CC2)nc2c(c1C)C(=O)N(CCO)C2 [Example 265C, (S)-2-(4-((2,2-difluoro-1-methylcyclopropyl)methoxy)piperidin-1-yl)-6-(2-hydroxyethyl)-3,4-dimethyl-6,7-dihydro-5H-pyrrolo[3,4-b]pyridin-5-one]"
6,6.22,"CCc1c(C)c(N2CCC(Oc3ccc(OC)nc3)CC2)nc2c1C(=O)NC2 [Example 229A, 4-ethyl-2-(4-((6-methoxypyridin-3-yl)oxy)piperidin-1-yl)-3-methyl-6,7-dihydro-5H-pyrrolo[3,4-b]pyridin-5-one]"
7,6.84,"Cc1cc2c(nc1N1CCC(Oc3cnc4c(c3)COC4)CC1)CN(CCO)C2=O [Example 236A, 2-(4-((5,7-dihydrofuro[3,4-b]pyridin-3-yl)oxy)piperidin-1-yl)-6-(2-hydroxyethyl)-3-methyl-6,7-dihydro-5H-pyrrolo[3,4-b]pyridin-5-one]"
8,7.14,"Cc1cc2c(nc1N1CCC(Oc3ccc4c(c3)CO[C@H]4C)CC1)CNC2=O [Example 199B, (S)-3-methyl-2-(4-((1-methyl-1,3-dihydro-2-benzofuran-5-yl)oxy)piperidin-1-yl)-6,7-dihydro-5H-pyrrolo[3,4-b]pyridin-5-one]"
9,7.68,"Cc1c(N2CC[C@@H](OCC3(C)CC3)[C@@H](F)C2)nc2c(c1C)C(=O)NC2 [Example 161A, 2-((3S,4R)-3-Fluoro-4-((1-methylcyclopropyl)methoxy)piperidin-1-yl)-3,4-dimethyl-6,7-dihydro-5H-pyrrolo[3,4-b]pyridin-5-one]"
10,6.59,"CO[C@H]1Cc2ccc(OC3CCN(c4nc5c(c(C)c4C)C(=O)NC5)CC3)cc2C1 [Example 335B, (5)-2-(4-((2-methoxy-2,3-dihydro-1H-inden-5-yl)oxy)piperidin-1-yl)-3,4-dimethyl-6,7-dihydro-5H-pyrrolo[3,4-b]pyridin-5-one]"
11,6.03,"COc1ccc(OC2CCN(c3nc4c(cc3C)C(=O)N[C@H]4CO)CC2)cn1 (single isomer, unassigned) [Example 271A]"
